Source: ChEMBL document CHEMBL1201862, “PubChem BioAssay data set” (2004)
The source made the active and inactive calls.

Legend:
[1] = target: T1, Zinc finger protein mex-5 (Caenorhabditis elegans, UniProt Q9XUB2); assay: potency of MEX-5 RNA-binding blockers – biochemical, C. elegans, fluorescence polarization, dose response (AID 1960)
T1 sequence (Q9XUB2 whole entry): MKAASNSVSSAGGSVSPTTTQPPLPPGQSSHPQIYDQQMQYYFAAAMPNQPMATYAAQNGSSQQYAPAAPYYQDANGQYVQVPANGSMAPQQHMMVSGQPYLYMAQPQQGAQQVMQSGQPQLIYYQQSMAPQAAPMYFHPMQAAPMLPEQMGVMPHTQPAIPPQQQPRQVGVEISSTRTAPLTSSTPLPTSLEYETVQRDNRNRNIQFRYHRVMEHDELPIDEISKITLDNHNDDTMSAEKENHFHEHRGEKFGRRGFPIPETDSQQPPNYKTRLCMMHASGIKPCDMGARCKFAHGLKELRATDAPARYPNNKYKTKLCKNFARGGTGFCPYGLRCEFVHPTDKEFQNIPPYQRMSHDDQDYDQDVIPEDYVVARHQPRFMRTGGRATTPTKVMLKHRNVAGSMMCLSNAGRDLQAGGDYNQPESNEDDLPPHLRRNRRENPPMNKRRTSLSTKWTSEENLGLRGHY

[2] = target: T2, RNA-binding protein pos-1 (Caenorhabditis elegans, UniProt G5EF15); assay: disruptors of C. elegans POS-1 RNA interaction – biochemical, fluorescence polarization, dose response (AID 1964);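 note: purified POS-1 fused to maltose binding protein made in E. coli; potency of compounds blocking POS-1 binding to fluorescent RNA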
T2 sequence (G5EF15 whole entry): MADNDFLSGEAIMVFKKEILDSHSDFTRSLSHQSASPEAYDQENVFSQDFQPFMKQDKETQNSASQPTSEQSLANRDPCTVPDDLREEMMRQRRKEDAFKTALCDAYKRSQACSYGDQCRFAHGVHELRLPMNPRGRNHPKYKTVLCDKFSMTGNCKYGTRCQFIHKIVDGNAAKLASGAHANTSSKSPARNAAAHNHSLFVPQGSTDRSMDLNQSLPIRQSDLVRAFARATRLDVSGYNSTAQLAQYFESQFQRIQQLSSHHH

Cytochrome P450 2C9 = Cytochrome P450 2C9 (Homo sapiens, UniProt P11712)
Chain of Cytochrome P450 2C9 (P11712 whole entry): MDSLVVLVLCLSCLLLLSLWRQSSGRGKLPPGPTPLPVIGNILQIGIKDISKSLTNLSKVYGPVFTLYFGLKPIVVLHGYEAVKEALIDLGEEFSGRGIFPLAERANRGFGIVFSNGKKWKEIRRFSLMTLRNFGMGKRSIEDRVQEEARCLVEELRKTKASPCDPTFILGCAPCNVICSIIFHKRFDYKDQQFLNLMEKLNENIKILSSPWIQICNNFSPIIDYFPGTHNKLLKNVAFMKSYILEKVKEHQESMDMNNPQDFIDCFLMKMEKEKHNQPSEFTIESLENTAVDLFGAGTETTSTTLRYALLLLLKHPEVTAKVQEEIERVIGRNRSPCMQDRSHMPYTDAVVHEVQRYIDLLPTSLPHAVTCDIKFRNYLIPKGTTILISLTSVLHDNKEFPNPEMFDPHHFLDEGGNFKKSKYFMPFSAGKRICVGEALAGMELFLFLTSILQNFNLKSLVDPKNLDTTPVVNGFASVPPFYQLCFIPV

Cytochrome P450 3A4 = Cytochrome P450 3A4 (Homo sapiens, UniProt P08684);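 note: CYP3A4 tested as one member of a cytochrome P450 panel screen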
Chain of Cytochrome P450 3A4 (P08684 whole entry): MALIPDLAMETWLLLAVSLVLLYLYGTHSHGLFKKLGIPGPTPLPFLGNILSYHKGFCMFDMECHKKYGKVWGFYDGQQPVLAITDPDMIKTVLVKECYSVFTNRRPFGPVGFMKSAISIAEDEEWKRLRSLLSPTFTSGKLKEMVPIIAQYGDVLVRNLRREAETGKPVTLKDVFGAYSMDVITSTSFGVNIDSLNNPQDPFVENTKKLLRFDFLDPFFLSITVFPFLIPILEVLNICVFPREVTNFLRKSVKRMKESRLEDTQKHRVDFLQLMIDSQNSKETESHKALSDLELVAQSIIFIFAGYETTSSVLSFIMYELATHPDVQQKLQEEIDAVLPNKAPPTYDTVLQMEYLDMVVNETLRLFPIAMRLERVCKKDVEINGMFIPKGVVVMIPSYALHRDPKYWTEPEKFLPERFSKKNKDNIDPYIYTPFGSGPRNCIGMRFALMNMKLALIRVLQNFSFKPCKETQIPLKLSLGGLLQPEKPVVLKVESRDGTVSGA

Cytochrome P450 2C19 = Cytochrome P450 2C19 (Homo sapiens, UniProt P33261); assay: Cytochrome panel assay with activity outcomes. Panel member name: p450-cyp2c19 Compounds with AC50 equal or less than 10 uM are considered active; format: functional
Chain of Cytochrome P450 2C19 (P33261 whole entry): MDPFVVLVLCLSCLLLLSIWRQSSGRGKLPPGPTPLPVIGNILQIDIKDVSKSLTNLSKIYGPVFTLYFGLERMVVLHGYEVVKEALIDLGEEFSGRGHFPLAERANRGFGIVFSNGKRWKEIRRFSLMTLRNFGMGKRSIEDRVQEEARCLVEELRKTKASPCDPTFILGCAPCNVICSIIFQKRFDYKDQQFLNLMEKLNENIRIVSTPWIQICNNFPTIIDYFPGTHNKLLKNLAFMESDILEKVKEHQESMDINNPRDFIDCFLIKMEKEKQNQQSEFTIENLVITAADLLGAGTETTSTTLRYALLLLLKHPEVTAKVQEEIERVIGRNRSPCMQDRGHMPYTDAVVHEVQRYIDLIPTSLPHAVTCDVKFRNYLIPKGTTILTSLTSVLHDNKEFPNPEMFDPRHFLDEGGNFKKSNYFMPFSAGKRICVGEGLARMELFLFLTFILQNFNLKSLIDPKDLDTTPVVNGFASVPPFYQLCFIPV

Cytochrome P450 1A2 = target: T3, Cytochrome P450 1A2 (Homo sapiens, UniProt P05177);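 note: PubChem cytochrome P450 panel assay, CYP1A2 panel member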
T3 sequence (P05177 whole entry): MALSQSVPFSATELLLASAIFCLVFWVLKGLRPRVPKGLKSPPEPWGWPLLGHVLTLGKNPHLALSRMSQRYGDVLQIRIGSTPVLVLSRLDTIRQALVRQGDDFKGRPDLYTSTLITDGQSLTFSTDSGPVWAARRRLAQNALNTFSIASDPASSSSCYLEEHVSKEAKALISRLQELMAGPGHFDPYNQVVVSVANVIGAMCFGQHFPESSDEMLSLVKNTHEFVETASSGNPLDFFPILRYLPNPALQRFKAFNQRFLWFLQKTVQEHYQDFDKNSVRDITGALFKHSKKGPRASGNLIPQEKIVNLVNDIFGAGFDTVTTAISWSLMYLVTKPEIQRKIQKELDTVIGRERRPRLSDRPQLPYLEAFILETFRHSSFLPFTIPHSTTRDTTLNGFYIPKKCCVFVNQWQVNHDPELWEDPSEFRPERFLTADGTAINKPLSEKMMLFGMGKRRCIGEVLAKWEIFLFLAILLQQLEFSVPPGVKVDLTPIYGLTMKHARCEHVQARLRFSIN

[3] = target: T4, Heat shock factor protein 1 (Mus musculus, UniProt P38532); assay: enhancement of HSF1-driven luciferase signal – cell-based, NIH3T3, luminescence, dose retest, confirmation (AID 435004); format: functional;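 note: stress induced by proteasome inhibitor MG132 added 30 min after compound; luciferase reporter driven by HSF1 response element in NIH3T3 cells; actives raise luminescence as potentiators of the MG132 stress response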
T4 sequence (P38532 whole entry): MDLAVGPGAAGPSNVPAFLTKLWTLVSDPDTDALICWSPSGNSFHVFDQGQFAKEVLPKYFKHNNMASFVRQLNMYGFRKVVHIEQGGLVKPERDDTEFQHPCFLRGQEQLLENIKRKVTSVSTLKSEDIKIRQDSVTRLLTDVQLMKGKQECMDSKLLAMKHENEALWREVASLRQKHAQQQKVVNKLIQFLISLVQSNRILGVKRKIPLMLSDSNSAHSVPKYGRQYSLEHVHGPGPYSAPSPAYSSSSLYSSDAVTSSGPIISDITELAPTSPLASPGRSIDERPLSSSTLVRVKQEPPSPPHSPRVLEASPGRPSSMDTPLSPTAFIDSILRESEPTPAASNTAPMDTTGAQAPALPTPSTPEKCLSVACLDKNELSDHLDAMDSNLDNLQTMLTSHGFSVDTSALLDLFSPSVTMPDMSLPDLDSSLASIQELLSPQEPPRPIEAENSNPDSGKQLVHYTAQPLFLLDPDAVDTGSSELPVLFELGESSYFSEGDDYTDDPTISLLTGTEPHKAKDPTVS

## CCN(CC)C(=O)CNc1ccc(C(F)(F)F)cc1[N+](=O)[O-]
[1]
  EC50: > 300 µM (not active)
[2]
  EC50: 40 µM (inconclusive)

## CCOc1ccc(-c2nn(-c3ccccc3)cc2/C=C(\C#N)S(=O)(=O)c2ccccc2)cc1C
Cytochrome P450 2C9
  AC50: 10 µM (inconclusive)
Cytochrome P450 3A4
  AC50: 11.2 µM (inconclusive)

## O=c1nc(SCc2cccc([N+](=O)[O-])c2)[nH]c2nc[nH]c12
Cytochrome P450 2C19
  AC50: inconclusive
Cytochrome P450 3A4
  AC50: 3.16 µM (inconclusive)

## CCC(C)(C)NC(=O)c1ccc2c(c1)N(CC(=O)OC)C(=O)C(C)(C)O2
Cytochrome P450 1A2
  AC50: 0.158 µM (inconclusive)
Cytochrome P450 2C19; read-out: AC50
  AC50: 20 µM (inconclusive)

## NC(=NO)C1COc2ccccc2O1 (stereo unspecified)
Cytochrome P450 2C9
  AC50: 2.51 µM (inconclusive)
Cytochrome P450 1A2
  AC50: 14.1 µM (inconclusive)
Cytochrome P450 2C19; read-out: AC50
  AC50: 11.2 µM (inconclusive)

## CCCNS(=O)(=O)c1ccc(CCC(=O)NCc2ccc3c(c2)OCO3)cc1
[1]
  EC50: > 300 µM (not active)
[2]
  EC50: > 300 µM (not active)

## CC(C)(O)C#Cc1ccc(C(=O)NCc2cccs2)s1
Cytochrome P450 2C19; read-out: AC50
  AC50: 17.8 µM (inconclusive)
Cytochrome P450 3A4
  AC50: 28.2 µM (inconclusive)

## CCc1nc(O)c(C#N)c2c1CSC(C)(C)C2
[3]
  EC50: > 260 µM (inactive)

## COc1cccc(-c2nc(C[S+]([O-])CC(=O)N3CCC4(CC3)OCCO4)c(C)o2)c1 (stereo unspecified)
Cytochrome P450 2C9
  AC50: 31.6 µM (inconclusive)
Cytochrome P450 1A2
  AC50: 25.1 µM (inconclusive)
Cytochrome P450 2C19; read-out: AC50
  AC50: 14.1 µM (inconclusive)
Cytochrome P450 3A4
  AC50: 12.6 µM (inconclusive)

## Cc1ccc(/C=C2\C(=O)NC(=S)N(c3ccc(F)cc3)C2=O)o1
[1]
  EC50: 43.9 µM (active)
[2]
  EC50: > 300 µM (not active)

## COc1ccc(-n2cnnc2SCC(=O)N(C)C2CCS(=O)(=O)C2)cc1 (stereo unspecified)
[3]
  EC50: > 260 µM (inactive)

## C/C=C(/C)C(=O)Nc1cccc(C2=NOC3(C2)C[C@@H](C(N)=O)N(C(=O)CC)C3)c1 (stereo partly specified)
[3]
  EC50: > 260 µM (inactive)

## Nc1ncnc2c1CCC2
[3]
  EC50: > 260 µM (inactive)

## COc1cccc(N2CCN(S(=O)(=O)c3ccc(-c4coc(C)n4)cc3)CC2)c1
[3]
  EC50: > 260 µM (inactive)

## O=C(Nc1cccc(C(F)(F)F)c1)c1n[nH]c(Cn2cncn2)n1
Cytochrome P450 2C19; read-out: AC50
  AC50: 28.2 µM (inconclusive)
Cytochrome P450 3A4
  AC50: 25.1 µM (inconclusive)

## COc1ccccc1N1CCN(c2nc(-c3ccccc3)cc(C(F)(F)F)n2)CC1
Cytochrome P450 1A2
  AC50: 0.631 µM (inconclusive)

## CCN1C(=O)/C(=C\c2c[nH]c3ccccc23)S/C1=N\c1ccc(C)cc1
Cytochrome P450 1A2
  AC50: 6.31 µM (inconclusive)

## CCN(CC)c1ccc(/C=c2/sc3nnc(-c4ccccc4C)n3c2=O)cc1
[1]
  EC50: > 300 µM (inconclusive)
[2]
  EC50: > 300 µM (not active)

## C[C@@H]1c2ccccc2Cn2cc3c(c21)C(=O)c1cccc(O[P@@](=O)(O)OCc2ccccc2)c1C3=O
Cytochrome P450 1A2
  AC50: 3.16 µM (inconclusive)

## CC(C)(S)[C@H](N)C(=O)O
Cytochrome P450 1A2
  AC50: 6.31 µM (inconclusive)

## ClCC1CS/C(=N\C23CC4CC(CC(C4)C2)C3)O1 (stereo unspecified)
[3]
  EC50: > 260 µM (inactive)

## Cn1c(CN2CCN(c3ccc(Cl)cc3)CC2)nc2ccccc21
[3]
  EC50: > 260 µM (inactive)

## O=C(O[C@@H]1Cc2c(O)cc(O)cc2O[C@@H]1c1cc(O)c(O)c(O)c1)c1cc(O)c(O)c(O)c1 [EPIGALOCATECHIN GALLATE]
[1]
  EC50: 0.727 µM (active)
[2]
  EC50: 5.89 µM (inconclusive)

## Clc1cncc(N2CCNCC2)n1 [MK-212]
Cytochrome P450 2C19; read-out: AC50
  AC50: 6.31 µM (inconclusive)
Cytochrome P450 3A4
  AC50: 15.8 µM (inconclusive)

## COc1cc(OC)c(C(=O)CCCCN2CCC3(CC2)NC(=O)NC3=O)cc1NS(=O)(=O)c1ccc(C(F)(F)F)cc1 [RS-102,221]
Cytochrome P450 3A4
  AC50: 7.94 µM (inconclusive)
